From paper PMC4858680, “A platinum-based hybrid drug design approach to circumvent acquired resistance to molecular targeted tyrosine kinase inhibitors” (Scientific Reports, 2016) come the findings set out here.

As a reminder, the IC50 is the point on the concentration scale where inhibition reaches its midpoint.

The subject of one series is K562 Ima1.0. Kind of series: Anticancer activity in imatinib-selected resistant K562 subline. Format: cell-based. Conditions: for IC50: read-out: Anticancer activity (IC50) K562 Imatinib selected (K562 Ima1.0), Bcr-Abl amplification.
The nature of series [1]: Chemical stability of the hybrid compounds. Conditions: for chemical stability in culture medium: Dulbecco’s Modified Eagle Medium supplemented with 5 mM glutathione.
Another series relates to K562. Kind of series: Anticancer activity (cytotoxicity) in CML cell line. The class given is cell-based.
A further series concerns HEK293 Mock transfected. Kind of series: Anticancer activity in mock transfected HEK293. The class given is cell-based. Conditions: Bcr-Abl negative.
Another series concerns the target P-gp (MDCKII–P-gp) (Homo sapiens, UniProt P08183). Conditions: 10 μM, mean of three experiments.
The test system of the next series is H292. In words: Anticancer activity (cytotoxicity) in NSCLC cell line. The class given is cell-based. The conditions noted are these: NSCLC; EGFR wild type; read-out: Anticancer activity (IC50) H292.
The next series relates to RPMI8226. Kind of series: Anticancer activity (cytotoxicity) in Bcr-Abl negative cell line. Format: cell-based.
Another series relates to HCC827. In words: Anticancer activity (cytotoxicity) in NSCLC cell line. Format: cell-based. Conditions: EGFR ΔE746-A750 (sensitizing).
The test system of the next series is p38. Kind of series: Western blot analysis of p38 phosphorylation. The class given is cell-based.
The subject of another series is HEK293 Bcr-Abl wild type. In words: Anticancer activity in HEK293 stably transfected with wild type Bcr-Abl. The class given is cell-based.
In another series the test system is HEK293 Bcr-Abl E255K. In words: Anticancer activity in HEK293 stably transfected with Bcr-Abl E255K. The class given is cell-based. The conditions noted are these: for IC50: stably transfected.
A further series concerns H1975. In words: Anticancer activity (cytotoxicity) in NSCLC cell line. The class given is cell-based. The conditions noted are these: H1975 versus HCC827.
A further series addresses T1, ABCG2 (Homo sapiens, UniProt Q9UNQ0, R482G).
T1 construct: endogenous in cells; host or cells: S1M1-80
In words: 5D3 shift assay. The class given is cell-based. Conditions: ABCG2-overexpressing S1M1-80 cells; flow cytometry. On the technique in general: A flow cytometer gives signals particle by particle.

Another series deals with P-gp (Homo sapiens, UniProt P08183). Kind of series: UIC2 shift assay. The class given is cell-based. The conditions noted are these: P-gp overexpressing SW620 Ad300 cells; flow cytometry. On the set-up: endogenous in cells; host or cells: SW620 Ad300.
Setting [2] is: CML cell line, Bcr-Abl positive, Table 1, read-out: Anticancer activity (IC50) K562.
The mark [3] stands for this setting: Table 2, read-out: Anticancer activity (IC50) K562 Sensitive parental.

Like-named read-outs stand apart in the source and are kept apart here.

P-gp (MDCKII–P-gp), sequence (P08183 whole entry): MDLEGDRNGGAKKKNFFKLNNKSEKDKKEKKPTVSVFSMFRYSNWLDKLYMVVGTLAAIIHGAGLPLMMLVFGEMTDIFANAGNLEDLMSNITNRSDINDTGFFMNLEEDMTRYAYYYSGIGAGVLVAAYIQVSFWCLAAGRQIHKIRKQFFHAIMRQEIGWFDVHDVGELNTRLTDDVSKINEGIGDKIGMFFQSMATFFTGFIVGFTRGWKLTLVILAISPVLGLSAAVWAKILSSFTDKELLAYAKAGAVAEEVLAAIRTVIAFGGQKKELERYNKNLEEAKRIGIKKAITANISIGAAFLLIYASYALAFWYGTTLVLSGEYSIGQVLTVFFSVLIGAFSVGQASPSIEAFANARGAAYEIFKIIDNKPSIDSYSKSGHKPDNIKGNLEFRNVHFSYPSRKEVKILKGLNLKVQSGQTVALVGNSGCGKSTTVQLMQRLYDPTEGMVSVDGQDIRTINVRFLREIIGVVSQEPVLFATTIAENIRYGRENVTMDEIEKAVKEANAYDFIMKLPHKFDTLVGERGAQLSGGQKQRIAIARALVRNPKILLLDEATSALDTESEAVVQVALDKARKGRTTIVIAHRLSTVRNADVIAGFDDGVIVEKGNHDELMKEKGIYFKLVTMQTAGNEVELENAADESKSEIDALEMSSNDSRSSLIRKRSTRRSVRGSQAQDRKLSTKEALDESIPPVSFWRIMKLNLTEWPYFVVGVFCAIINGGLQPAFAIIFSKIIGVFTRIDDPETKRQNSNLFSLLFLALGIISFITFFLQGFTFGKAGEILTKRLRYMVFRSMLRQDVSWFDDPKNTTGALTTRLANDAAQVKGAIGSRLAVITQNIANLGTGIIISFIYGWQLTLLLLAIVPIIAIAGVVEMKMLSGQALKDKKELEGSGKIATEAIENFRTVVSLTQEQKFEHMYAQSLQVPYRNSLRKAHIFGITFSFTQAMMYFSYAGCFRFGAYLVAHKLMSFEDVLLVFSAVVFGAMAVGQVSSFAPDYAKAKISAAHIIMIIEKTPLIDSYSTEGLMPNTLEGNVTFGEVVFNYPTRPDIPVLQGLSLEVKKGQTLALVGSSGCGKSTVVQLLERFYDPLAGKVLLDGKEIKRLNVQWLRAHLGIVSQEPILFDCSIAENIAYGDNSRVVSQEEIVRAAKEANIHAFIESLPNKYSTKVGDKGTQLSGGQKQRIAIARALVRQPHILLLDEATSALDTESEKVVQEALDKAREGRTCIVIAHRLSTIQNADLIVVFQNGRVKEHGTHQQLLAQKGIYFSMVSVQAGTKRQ
T1 sequence (Q9UNQ0 whole entry R482G): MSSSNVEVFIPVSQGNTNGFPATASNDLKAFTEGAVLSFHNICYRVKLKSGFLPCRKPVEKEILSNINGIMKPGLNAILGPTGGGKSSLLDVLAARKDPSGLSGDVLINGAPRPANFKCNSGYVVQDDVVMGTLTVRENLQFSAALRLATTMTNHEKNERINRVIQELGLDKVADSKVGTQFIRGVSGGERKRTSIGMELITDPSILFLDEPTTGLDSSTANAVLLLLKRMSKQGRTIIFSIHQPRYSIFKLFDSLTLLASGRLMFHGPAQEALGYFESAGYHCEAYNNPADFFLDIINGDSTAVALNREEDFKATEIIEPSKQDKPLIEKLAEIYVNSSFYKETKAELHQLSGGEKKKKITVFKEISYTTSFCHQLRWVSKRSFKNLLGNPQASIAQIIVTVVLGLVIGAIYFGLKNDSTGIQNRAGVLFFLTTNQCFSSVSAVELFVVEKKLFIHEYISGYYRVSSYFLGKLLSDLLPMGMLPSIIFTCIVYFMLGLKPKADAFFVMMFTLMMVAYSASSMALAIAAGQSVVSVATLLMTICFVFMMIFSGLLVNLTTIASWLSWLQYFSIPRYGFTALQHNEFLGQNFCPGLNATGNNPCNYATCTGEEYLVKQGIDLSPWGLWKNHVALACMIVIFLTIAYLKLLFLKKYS
P-gp, sequence (P08183 whole entry): as the sequence (P08183 whole entry) above

For `Cc1ccc(NC(=O)c2ccc(CN3CCN(C)CC3)cc2)cc1Nc1nccc(-c2cccnc2)[n+]1[Pt@SP3-2]([NH3+])([NH3+])[Cl]` [1c, transplatin-imatinib], the IC50 in the series with K562 Ima1.0 was 1.05 ± 0.14 µM; with K562 (setting [2]) it was 1.04 ± 0.01 µM; in the series on K562 (setting [3]) it was 1.04 ± 0.01 µM; in the series on HEK293 Mock transfected, 10.1 ± 1.39 µM. Besides, the “chemical stability in culture medium” value in [1] is on record as “undergo gradual degradation to release the original TKI”. Besides, in the series on ERK1/2 in K562 Ima1.0, the “activation of downstream ERK1/2 (Western blot)” value is reported as “able to inhibit the activation”. The “DNA damage marker (phosphor-γ-H2Ax) (Western blot)” value in the series on phosphor-γ-H2Ax is “concentration dependent upregulation”.
For `C#Cc1cccc(Nc2c3cc(OCCOC)c(OCCOC)cc3nc[n+]2[Pt-2]2([Cl])[NH2+]C3CCCCC3[NH2+]2)c1` (stereo not drawn) [2b, oxaliplatin-erlotinib], in series [1] (saline, phosphate buffered solution (pH 4 and 7.4), culture medium with 5 mM glutathione), the “chemical stability in all conditions tested” value is “stable”. Besides, at P-gp (MDCKII–P-gp), the “A to B transport (apparent permeability)” value is recorded as 6.59 × 10^−6. Also, the IC50 in the series on H292 was 1.33 ± 0.39 µM.
As to `C#Cc1cccc(Nc2c3cc(OCCOC)c(OCCOC)cc3nc[n+]2[Pt@SP3-2]([NH3+])([NH3+])[Cl])c1` [2c, transplatin-erlotinib], the “chemical stability in culture medium” value in series [1] is listed as “undergo gradual degradation to release the original TKI”. For the same molecule, on P-gp (MDCKII–P-gp), the “A to B transport (apparent permeability)” value is 3.57 × 10^−6 and the “B to A transport (apparent permeability)” value is recorded as 3.40 × 10^−6.
With `COc1cc2c(Nc3ccc(Br)cc3F)[n+]([Pt@SP2-2]([NH2])([NH3+])[Cl])cnc2cc1OCC1CCN(C)CC1` [3a, cisplatin-vandetanib], in the series with H292, the IC50 worked out at 26.4 ± 3.19 µM.
As for `COc1cc2c(Nc3ccc(Br)cc3F)[n+]([Pt@SP3-2]([NH2])([NH3+])[Cl])cnc2cc1OCC1CCN(C)CC1` [3c, transplatin-vandetanib], the IC50 with H292 is 18.4 ± 4.48 µM.
Regarding `N.N.[Cl][Pt][Cl]` [Cisplatin], the IC50 amounted to 2970 ± 820 nM with RPMI8226; 6.65 ± 1.66 µM in the series on HCC827; 17.5 ± 1.06 µM in the series with K562 Ima1.0; 19.8 ± 1.42 µM in the series with K562 (setting [2]); 19.8 ± 1.42 µM in the series on K562 (setting [3]); 8.16 ± 1.01 µM in the series on HEK293 Bcr-Abl wild type. Also, the values for the IC50 in the series on HEK293 Mock transfected, with HEK293 Bcr-Abl E255K and with H292 were 5.43 ± 0.72 µM, 6.54 ± 0.49 µM and 2.12 ± 0.87 µM, respectively. Also, the “p38 phosphorylation (Western blot)” value with p38 is given as “induce p38 phosphorylation”.
`O=C1[O][Pt]2([NH][C@@H]3CCCC[C@H]3[NH]2)[O]C1=O` [Oxaliplatin]: the IC50 in the series with RPMI8226 came out at 430 ± 40 nM; in the series with HCC827, 3.6 ± 1.76 µM; with K562 Ima1.0, 16.4 ± 1.14 µM; in the series on K562 (setting [2]), 16.6 ± 2.08 µM; in the series on K562 (setting [3]), 16.6 ± 2.08 µM; with HEK293 Bcr-Abl wild type it was 3.15 ± 0.87 µM. The values for the IC50 with HEK293 Mock transfected, in the series with HEK293 Bcr-Abl E255K and with H292 were 2.41 ± 0.32 µM, 2.65 ± 0.71 µM and 3.77 ± 0.35 µM, respectively. Further, the “Fold resistance K562 Ima1.0” value in the series with K562 Ima1.0 (versus sensitive parental K562) is 1.0. Also, the “Fold resistance (IC50 in H1975/IC50 in HCC827)” value with H1975 was found to be 1.4. Besides, in the series on HEK293 Bcr-Abl E255K (versus HEK293 Bcr-Abl wild type), the “Fold resistance HEK293 Bcr-Abl E255K” value was 0.8.
For `O=c1c(O)c(-c2ccc(O)c(O)c2)oc2cc(O)cc(O)c12` [quercetin], on ABCG2, the “5D3 shift (interaction with ABCG2)” value is on record as “concentration dependent antibody shift”.
For `C=C[C@H]1C[N@@]2CC[C@H]1C[C@H]2[C@H](O)c1ccnc2ccc(OC)cc12` [quinine], at P-gp, the “UIC2 shift (interaction with P-gp)” value is “concentration dependent antibody shift”.
